From patent US20020193369A1, “Antifungal compounds and uses therefor” (priority 2000, published 2002)
Values after ≈ are worked out from the molar mass of the structure shown. Where two headings read alike, the source gives them in different places. Marks after values point to notes of the source that are not given here.

Legend:
[1] = tested on: Candida krusei Strain M13C4; assay: MIC of fluconazole for Candida krusei with lead compounds; type: cell-based; settings: for MIC of fluconazole: Fluconazole + lead compound
C. albicans [2] = assay: Fungicidal synergy with fluconazole against C. albicans (active concentration of leads and analogs); type: cell-based, Candida albicans; settings: for concentration at which fungicidal activity is observed: combined with high concentrations of fluconazole (16 μg/ml and more); for activity (concentration synergizing with fluconazole to a fungicidal effect): fluconazole 32 μg/ml
Protocol: In summary, the performed screens of the chemical library identified a number of interesting potentiators of azole activity. Of these potentiators the inventors chose for further development two lead compounds, INF 801 and INF 802. […] Unlike compound INF 799, which is active at very low concentration (2 ng/ml, see above), INF 801 and INF 802 need to be present at relatively high concentrations to be active. When combined with high concentrations of fluconazole (16 μg/ml and more), their fungicidal activity is observed at 1.25 or 2.5 μg/ml, respectively. At concentrations of the azole that are clinically relevant (4 μg/ml), they are active only at ˜5-10 μg/ml.
Eleven structural analogs of INF 801 and fourteen analogs of INF 802 were purchased from ChemBridge, Maybridge and Aldrich and tested for activity. […] The numbers presented in these two tables indicate the -fold reduction in the number of live cells after 24 hour incubation with the combinations of azoles and potentiators. The higher the number, the higher the fungicidal activity of the combination. Note that concentrations of drags are somewhat different in the two tables, so the comparison between the two tables is not meaningful.

[3] = tested on: C. albicans strain ATCC 90028; assay: Fold reduction of live cells after 24 hr incubation with combinations of azoles and potentiators; type: cell-based, Candida albicans
Protocol: Eleven structural analogs of INF 801 and fourteen analogs of INF 802 were purchased from ChemBridge, Maybridge and Aldrich and tested for activity. […] The numbers presented in these two tables indicate the -fold reduction in the number of live cells after 24 hour incubation with the combinations of azoles and potentiators. The higher the number, the higher the fungicidal activity of the combination. Note that concentrations of drags are somewhat different in the two tables, so the comparison between the two tables is not meaningful. [table] [table]

C. albicans [4] = assay: Time-kill experiments in liquid culture of C. albicans; type: cell-based, Candida albicans; settings: for effect on growth of the yeast, compound alone: 10 μg/ml, no fluconazole; for colonies from plating of a milliliter of culture: combination with fluconazole, culture initially 3000 CFU/ml; for drop in number of live cells after 24 hours, combination with fluconazole / drop in number of live cells after 48 hours, combination with fluconazole: fluconazole 32 μg/ml + compound 10 μg/ml
C. albicans [5] = assay: Paper disk zones of inhibition on YPD agar plates inoculated with C. albicans; type: cell-based, Candida albicans; settings: for zone of inhibition, combination with fluconazole: disk with fluconazole 1 mg/ml + compound 2.5 mg/ml
[6] = tested on: sterol composition of C. Albicans; assay: TLC analysis of sterols of C. albicans; type: cell-based, Candida albicans; settings: 24 hours
C. albicans [7] = assay: Growth of C. albicans in liquid culture with compound alone (without fluconazole); type: cell-based, Candida albicans
[8] = tested on: Candida krusei Strain M13C4; assay: Killing of Candida krusei by fluconazole combinations (CFU/ml after 24 hours); type: cell-based; settings: for effect in combination with fluconazole on C. kruzei: fluconazole at concentration exceeding its MIC; for CFU/ml after 24 hours incubation: inoculated at 6000 CFU/ml; for effect of compound alone on C. kruzei: not shown
[9] = cited from earlier work
C. albicans isolates = settings: cited from earlier work
[10] = tested on: Candida krusei Strain M13C4; settings: cited from earlier work
[11] = tested on: C. albicans isolates (sensitive; isolate #4 over expressing MDR1); assay: microbe, parasite or virus in culture; type: cell-based; settings: Candida albicans
Solubility limit = type: physicochemical; settings: liquid culture of C. albicans
[12] = compound at 10 μg/ml, inoculum 7600 CFU/ml
[13] = disk soaked in fluconazole 1 mg/ml or compound 2.5 mg/ml in DMSO
[14] = fluconazole 128 μg/ml + compound 20 μg/ml
[15] = compound at 5 μg/ml, inoculum 8000 CFU/ml

O=C(O)CCn1c2ccc(Cl)cc2c2cc(Cl)ccc21 [INF 801]
MIC of fluconazole [1]: 16 µg/mL
concentration at which fungicidal activity is observed (C. albicans [2]): 1.25 µg/mL
fold reduction of the concentration of live cells, + Fluconazole, 16 μg/ml [3, 12]: 48* fold
fold reduction of the concentration of live cells, + Itraconazole, 0.5 μg/ml [3, 12]: 30 fold
fold reduction of the concentration of live cells, + Ketaconazole, 0.5 μg/ml [3, 12]: 28 fold
effect on growth of the yeast, compound alone (C. albicans [4]): very little effect on the growth of the yeast
colonies from plating of a milliliter of culture (C. albicans [4]): no colonies
drop in number of live cells after 24 hours, combination with fluconazole (C. albicans [4]): two orders of magnitude
drop in number of live cells after 48 hours, combination with fluconazole (C. albicans [4]; 48 hours): more than three orders of magnitude
growth within zones after a week of incubation, combination with fluconazole (C. albicans [5]): no growth
zone of inhibition, single agent (C. albicans [5]; [13]): narrow zones of inhibition
zone of inhibition, combination with fluconazole (C. albicans [5]): large zones of inhibition lacking any growth
sterol pattern with fluconazole in the presence of INF 801 ([6]; differing concentrations of fluconazole): substituting sterols accumulate in much smaller amounts than in the control
concentration affecting growth of C. albicans without fluconazole (C. albicans [7]): exceeding 30 μg/ml
effect in combination with fluconazole on C. kruzei [8]: strongly fungicidal
CFU/ml after 24 hours incubation [8, 14]: 20 CFU/ml
effect of compound alone on C. kruzei [8]: harmless

OCC(O)Cn1c2ccc(Cl)cc2c2cc(Cl)ccc21 (stereo not shown) [DV 236818]
activity (concentration synergizing with fluconazole to a fungicidal effect) (C. albicans [2]): 5 µg/mL

OCC(O)Cn1c2ccc(Br)cc2c2cc(Br)ccc21 (stereo not shown) [Compound S243213]
activity (concentration synergizing with fluconazole to a fungicidal effect) (C. albicans [2]): 0.6 µg/mL
fold reduction of the concentration of live cells, + Fluconazole, 16 μg/ml [3, 12]: 6.9 fold
fold reduction of the concentration of live cells, + Itraconazole, 0.5 μg/ml [3, 12]: 6.3 fold
fold reduction of the concentration of live cells, + Ketaconazole, 0.5 μg/ml [3, 12]: 7.8 fold

CCC(C)n1ncn(-c2ccc(N3CCN(c4ccc(OCC5COC(Cn6cncn6)(c6ccc(Cl)cc6Cl)O5)cc4)CC3)cc2)c1=O (stereo not shown) [Itraconazole]
absorption in the fasting state relative to drug taken with food ([9]; in vivo, po): 30%

CC(=O)N1CCN(c2ccc(OCC3COC(Cn4ccnc4)(c4ccc(Cl)cc4Cl)O3)cc2)CC1 (stereo not shown) [Ketoconazole]
peak plasma concentrations ([9]; oral doses 200-800 mg): 4 to 20 µg/mL

Clc1ccc(COC(Cn2ccnc2)c2ccc(Cl)cc2Cl)cc1 (stereo not shown) [Econazole]
fraction absorbed into the blood ([9]; in vivo): Less than 1%

Clc1ccccc1C(c1ccccc1)(c1ccccc1)n1ccnc1 [Clotrimazole]
absorption after application to the skin ([9]; in vivo): less than 0.5%
absorption from the vagina ([9]; in vivo): 3-10%

OC(CN1CCC(/C=C/C2=CC=CCC2)CC1)Cn1c2ccccc2c2ccccc21 (stereo not shown) [DV 236683]
activity (concentration synergizing with fluconazole to a fungicidal effect) (C. albicans [2]): 5 µg/mL

OC(Cn1cncn1)(Cn1cncn1)c1ccc(F)cc1F [Fluconazole, reference compound]
absorption from the GI tract ([9]; in vivo): almost completely absorbed
MIC ([1]; Pichia kudriavzevii, STRAINM13C4, Fluconazole alone): 64 µg/mL
change in number of CFUs after 48 hours, fluconazole alone (C. albicans [4]; fluconazole 32 μg/ml, 48 hours): four orders of magnitude
zone of inhibition, single agent (C. albicans [5]): pronounced zone of growth inhibition
MIC of fluconazole after 48 hours (C. albicans isolates; many isolates): exceeds 64 μg/ml
MIC of fluconazole after 24 hours of incubation (C. albicans isolates; most isolates): < 4 µg/mL
MIC of fluconazole for C. kruzei (general range) [10]: 8 to 128 µg/mL
MIC80 ([11]; read-out: MIC80 of fluconazole in sensitive isolates): 0.5 to 1 µg/mL (≈ 1.63 to 3.27 µM)
MIC ([11]; read-out: MIC of fluconazole, isolate #4): 8 µg/mL
effect of fluconazole on ergosterol ([6]; increasing concentrations of fluconazole): decrease in the amount of ergosterol
effect of fluconazole alone on C. kruzei ([8]; 128 μg/ml): strongly fungistatic
CFU/ml after 24 hours incubation ([8]; fluconazole 128 μg/ml alone): 6230 CFU/ml

OC(CN1CCC(/C=C/C2=CC=CCC2)CC1)Cn1c2ccc(Cl)cc2c2cc(Cl)ccc21 (stereo not shown) [DV 236687]
activity (concentration synergizing with fluconazole to a fungicidal effect) (C. albicans [2]): 10 µg/mL

O=C(O)C12c3ccccc3C(c3ccccc31)c1ccccc12 [INF 802]
MIC of fluconazole [1]: 32 µg/mL
concentration at which fungicidal activity is observed (C. albicans [2]): 2.5 µg/mL
fold reduction of the concentration of live cells, + Fluconazole, 16 μg/ml [3, 15]: 5.5 fold
fold reduction of the concentration of live cells, + Itraconazole, 1 μg/ml [3, 15]: 5.0 fold
fold reduction of the concentration of live cells, + Ketaconazole, 1 μg/ml [3, 15]: 6.0 fold
effect on growth of the yeast, compound alone (C. albicans [4]): very little effect on the growth of the yeast
colonies from plating of a milliliter of culture (C. albicans [4]): no colonies
drop in number of live cells after 24 hours, combination with fluconazole (C. albicans [4]): two orders of magnitude
drop in number of live cells after 48 hours, combination with fluconazole (C. albicans [4]; 48 hours): more than three orders of magnitude
growth within zones after a week of incubation, combination with fluconazole (C. albicans [5]): no growth
zone of inhibition, single agent (C. albicans [5]; [13]): narrow zones of inhibition
zone of inhibition, combination with fluconazole (C. albicans [5]): large zones of inhibition lacking any growth
solubility (Solubility limit): 80 µg/mL (≈ 268 µM)
concentration affecting growth of C. albicans without fluconazole (C. albicans [7]): > 80 µg/mL
effect in combination with fluconazole on C. kruzei [8]: strongly fungicidal
CFU/ml after 24 hours incubation [8, 14]: 20 CFU/ml
effect of compound alone on C. kruzei [8]: harmless

O=CC12c3ccccc3C(c3ccccc31)c1ccccc12 [S 060128]
fold reduction of the concentration of live cells, + Fluconazole, 16 μg/ml [3, 15]: 36 fold
fold reduction of the concentration of live cells, + Itraconazole, 1 μg/ml [3, 15]: 69 fold
fold reduction of the concentration of live cells, + Ketaconazole, 1 μg/ml [3, 15]: 380 fold
